Source: ChEMBL document CHEMBL4229569, “Structure-Based Design of 1-Heteroaryl-1,3-propanediamine Derivatives as a Novel Series of CC-Chemokine Receptor 5 Antagonists” (J Med Chem, 2018)

Tests used:
[1] = target: C-C chemokine receptor type 5 (Homo sapiens, UniProt P51681); test: Antagonist activity at CCR5 (unknown origin) expressed in HEK293 cells co-expressing Galpha16 assessed as inhibition of RANTES-induced calcium flux preincubated for 10 mins followed by RANTES addition by fluo-4AM-based fluorescence assay; assay type: functional, cell-based
Chain of C-C chemokine receptor type 5 (P51681 whole entry): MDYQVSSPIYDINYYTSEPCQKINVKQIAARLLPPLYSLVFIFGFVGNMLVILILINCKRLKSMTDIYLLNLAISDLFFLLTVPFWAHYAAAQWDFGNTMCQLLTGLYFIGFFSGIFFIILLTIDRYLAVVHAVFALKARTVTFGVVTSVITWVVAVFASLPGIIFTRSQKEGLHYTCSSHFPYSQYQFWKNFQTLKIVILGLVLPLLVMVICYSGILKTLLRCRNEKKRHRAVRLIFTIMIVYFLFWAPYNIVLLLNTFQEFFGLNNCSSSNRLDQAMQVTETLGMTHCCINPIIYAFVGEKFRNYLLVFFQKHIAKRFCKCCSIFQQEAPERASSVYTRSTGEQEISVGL

[2] = Cytotoxicity against human TZM-bl cells after 48 hrs by MTT assay; assay type: cell-based
[3] = Cmax in Sprague-Dawley rat at 20 mg/kg, po by LC-MS/MS analysis; assay type: ADME, organism-based; set-up: dose 20 mg/kg, route oral; details: in vivo
[4] = Tmax in Sprague-Dawley rat at 20 mg/kg, po by LC-MS/MS analysis; assay type: ADME, organism-based; details: in vivo
[5] = Half life in Sprague-Dawley rat at 20 mg/kg, po by LC-MS/MS analysis; assay type: ADME, organism-based; details: in vivo
[6] = AUC (0 to infinity) in Sprague-Dawley rat at 20 mg/kg, po by LC-MS/MS analysis; assay type: ADME, organism-based; set-up: dose 20 mg/kg, route oral, time infinity; details: in vivo
[7] = MRT in Sprague-Dawley rat at 20 mg/kg, po by LC-MS/MS analysis; assay type: ADME, organism-based; details: in vivo
[8] = Oral bioavailability in Sprague-Dawley rat at 20 mg/kg by LC-MS/MS analysis; assay type: ADME, organism-based; details: in vivo
[9] = Cmax in Sprague-Dawley rat at 10 mg/kg, iv by LC-MS/MS analysis; assay type: ADME, organism-based; set-up: dose 10 mg/kg, route intravenous; details: in vivo
[10] = Tmax in Sprague-Dawley rat at 10 mg/kg, iv by LC-MS/MS analysis; assay type: ADME, organism-based; details: in vivo
[11] = Half life in Sprague-Dawley rat at 10 mg/kg, iv by LC-MS/MS analysis; assay type: ADME, organism-based; details: in vivo
[12] = AUC (0 to infinity) in Sprague-Dawley rat at 10 mg/kg, iv by LC-MS/MS analysis; assay type: ADME, organism-based; set-up: dose 10 mg/kg, time infinity, route intravenous; details: in vivo
[13] = MRT in Sprague-Dawley rat at 10 mg/kg, iv by LC-MS/MS analysis; assay type: ADME, organism-based; details: in vivo
[14] = Clearance in Sprague-Dawley rat at 10 mg/kg, iv by LC-MS/MS analysis; assay type: ADME, organism-based; details: in vivo
[15] = Cmax in dog at 15 mg/kg, po by LC-MS/MS analysis; assay type: ADME, organism-based, Canis lupus familiaris; set-up: dose 15 mg/kg, route oral; details: in vivo
[16] = Tmax in dog at 15 mg/kg, po by LC-MS/MS analysis; assay type: ADME, organism-based, Canis lupus familiaris; details: in vivo
[17] = Half life in dog at 15 mg/kg, po by LC-MS/MS analysis; assay type: ADME, organism-based, Canis lupus familiaris; details: in vivo
[18] = AUC (0 to infinity) in dog at 15 mg/kg, po by LC-MS/MS analysis; assay type: ADME, organism-based, Canis lupus familiaris; set-up: dose 15 mg/kg, time infinity, route oral; details: in vivo
[19] = MRT in dog at 15 mg/kg, po by LC-MS/MS analysis; assay type: ADME, organism-based, Canis lupus familiaris; details: in vivo
[20] = Oral bioavailability in dog at 15 mg/kg by LC-MS/MS analysis; assay type: ADME, organism-based, Canis lupus familiaris; details: in vivo
[21] = Half life in dog at 3 mg/kg, iv by LC-MS/MS analysis; assay type: ADME, organism-based, Canis lupus familiaris; details: in vivo
[22] = AUC (0 to infinity) in dog at 3 mg/kg, iv by LC-MS/MS analysis; assay type: ADME, organism-based, Canis lupus familiaris; set-up: dose 3 mg/kg, route intravenous, time infinity; details: in vivo
[23] = MRT in dog at 3 mg/kg, iv by LC-MS/MS analysis; assay type: ADME, organism-based, Canis lupus familiaris; details: in vivo
[24] = Clearance in dog at 3 mg/kg, iv by LC-MS/MS analysis; assay type: ADME, organism-based, Canis lupus familiaris; details: in vivo
[25] = target: Voltage-gated inwardly rectifying potassium channel KCNH2 (Homo sapiens, UniProt Q12809); test: Inhibition of human ERG expressed in CHO cells at holding potential of -80 mV after 60 secs by patch clamp assay; assay type: cell-based
Chain of Voltage-gated inwardly rectifying potassium channel KCNH2 (Q12809 whole entry): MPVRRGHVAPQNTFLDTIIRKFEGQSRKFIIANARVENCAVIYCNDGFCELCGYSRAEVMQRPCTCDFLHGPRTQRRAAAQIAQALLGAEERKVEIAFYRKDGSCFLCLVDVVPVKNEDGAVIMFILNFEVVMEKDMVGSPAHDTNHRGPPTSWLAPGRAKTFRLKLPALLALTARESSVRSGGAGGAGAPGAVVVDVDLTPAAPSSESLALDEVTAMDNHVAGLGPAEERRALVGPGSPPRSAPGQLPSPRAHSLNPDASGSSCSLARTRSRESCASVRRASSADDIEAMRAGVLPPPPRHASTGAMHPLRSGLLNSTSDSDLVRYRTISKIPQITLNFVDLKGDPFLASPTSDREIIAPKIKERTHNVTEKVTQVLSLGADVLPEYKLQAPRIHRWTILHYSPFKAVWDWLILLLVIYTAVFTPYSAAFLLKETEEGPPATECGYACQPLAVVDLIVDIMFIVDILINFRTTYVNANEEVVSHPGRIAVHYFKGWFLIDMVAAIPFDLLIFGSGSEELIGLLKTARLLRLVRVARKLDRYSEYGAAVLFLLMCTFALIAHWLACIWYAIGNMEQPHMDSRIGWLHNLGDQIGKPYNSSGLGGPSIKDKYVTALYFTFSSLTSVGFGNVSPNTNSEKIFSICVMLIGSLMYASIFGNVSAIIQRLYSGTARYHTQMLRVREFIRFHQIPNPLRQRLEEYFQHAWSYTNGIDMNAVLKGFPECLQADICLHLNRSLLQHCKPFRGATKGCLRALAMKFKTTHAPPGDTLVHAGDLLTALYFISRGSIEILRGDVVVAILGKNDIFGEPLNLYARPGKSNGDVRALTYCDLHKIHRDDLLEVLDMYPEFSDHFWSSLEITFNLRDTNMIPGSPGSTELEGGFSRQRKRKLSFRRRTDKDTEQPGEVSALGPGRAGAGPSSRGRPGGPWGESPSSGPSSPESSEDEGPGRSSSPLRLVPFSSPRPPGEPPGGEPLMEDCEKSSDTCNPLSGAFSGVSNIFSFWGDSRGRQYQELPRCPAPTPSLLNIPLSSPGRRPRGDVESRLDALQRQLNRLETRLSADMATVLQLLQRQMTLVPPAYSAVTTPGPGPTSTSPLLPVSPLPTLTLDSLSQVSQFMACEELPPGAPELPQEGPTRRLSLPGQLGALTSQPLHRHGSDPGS

Cytochrome P450 1A2 = target: T1, Cytochrome P450 1A2 (Homo sapiens, UniProt P05177); test: Inhibition of CYP1A2 (unknown origin); assay type: ADME
T1 sequence (P05177 whole entry): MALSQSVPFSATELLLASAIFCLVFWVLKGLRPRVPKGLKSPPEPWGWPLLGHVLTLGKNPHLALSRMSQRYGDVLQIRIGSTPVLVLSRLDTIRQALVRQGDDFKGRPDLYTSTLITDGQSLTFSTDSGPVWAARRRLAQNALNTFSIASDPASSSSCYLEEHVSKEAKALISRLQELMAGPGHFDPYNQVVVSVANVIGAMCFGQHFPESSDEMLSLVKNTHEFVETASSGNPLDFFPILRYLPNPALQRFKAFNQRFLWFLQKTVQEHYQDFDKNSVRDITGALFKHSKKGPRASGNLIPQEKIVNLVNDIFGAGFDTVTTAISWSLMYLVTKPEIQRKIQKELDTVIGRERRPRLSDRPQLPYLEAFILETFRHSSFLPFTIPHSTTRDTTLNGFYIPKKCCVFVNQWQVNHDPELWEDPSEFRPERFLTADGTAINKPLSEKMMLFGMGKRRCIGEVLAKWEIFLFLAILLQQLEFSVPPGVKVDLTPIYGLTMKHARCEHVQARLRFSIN

Cytochrome P450 2C9 = Cytochrome P450 2C9 (Homo sapiens, UniProt P11712); test: Inhibition of CYP2C9 (unknown origin); assay type: ADME
Chain of Cytochrome P450 2C9 (P11712 whole entry): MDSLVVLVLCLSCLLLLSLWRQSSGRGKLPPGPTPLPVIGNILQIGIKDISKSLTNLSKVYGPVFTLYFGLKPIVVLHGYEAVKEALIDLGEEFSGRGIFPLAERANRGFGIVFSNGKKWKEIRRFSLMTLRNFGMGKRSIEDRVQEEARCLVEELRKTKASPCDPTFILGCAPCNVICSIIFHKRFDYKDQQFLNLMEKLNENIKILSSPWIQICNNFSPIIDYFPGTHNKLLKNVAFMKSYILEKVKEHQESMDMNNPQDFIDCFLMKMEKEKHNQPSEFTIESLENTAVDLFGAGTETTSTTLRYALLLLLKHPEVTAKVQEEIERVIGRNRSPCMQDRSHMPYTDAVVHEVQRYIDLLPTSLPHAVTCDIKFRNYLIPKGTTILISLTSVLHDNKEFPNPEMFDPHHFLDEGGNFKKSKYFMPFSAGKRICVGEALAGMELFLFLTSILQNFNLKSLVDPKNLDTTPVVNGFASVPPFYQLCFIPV

Cytochrome P450 2C19 = Cytochrome P450 2C19 (Homo sapiens, UniProt P33261); test: Inhibition of CYP2C19 (unknown origin); assay type: ADME
Chain of Cytochrome P450 2C19 (P33261 whole entry): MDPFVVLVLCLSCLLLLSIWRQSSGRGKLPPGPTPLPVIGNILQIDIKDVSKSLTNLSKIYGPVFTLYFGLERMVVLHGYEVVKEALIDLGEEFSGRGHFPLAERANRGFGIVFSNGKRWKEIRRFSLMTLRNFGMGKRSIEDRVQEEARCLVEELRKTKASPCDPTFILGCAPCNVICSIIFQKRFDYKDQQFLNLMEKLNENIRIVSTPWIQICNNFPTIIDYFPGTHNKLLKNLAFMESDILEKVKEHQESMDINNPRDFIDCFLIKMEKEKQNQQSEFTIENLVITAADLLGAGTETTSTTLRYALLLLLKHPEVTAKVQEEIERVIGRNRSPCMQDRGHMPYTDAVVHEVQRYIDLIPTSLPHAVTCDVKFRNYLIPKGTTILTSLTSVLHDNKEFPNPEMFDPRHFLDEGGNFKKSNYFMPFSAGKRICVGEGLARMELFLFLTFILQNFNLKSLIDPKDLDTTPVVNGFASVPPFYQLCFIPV

Cytochrome P450 2D6 = Cytochrome P450 2D6 (Homo sapiens, UniProt P10635); test: Inhibition of CYP2D6 (unknown origin); assay type: ADME
Chain of Cytochrome P450 2D6 (P10635 whole entry): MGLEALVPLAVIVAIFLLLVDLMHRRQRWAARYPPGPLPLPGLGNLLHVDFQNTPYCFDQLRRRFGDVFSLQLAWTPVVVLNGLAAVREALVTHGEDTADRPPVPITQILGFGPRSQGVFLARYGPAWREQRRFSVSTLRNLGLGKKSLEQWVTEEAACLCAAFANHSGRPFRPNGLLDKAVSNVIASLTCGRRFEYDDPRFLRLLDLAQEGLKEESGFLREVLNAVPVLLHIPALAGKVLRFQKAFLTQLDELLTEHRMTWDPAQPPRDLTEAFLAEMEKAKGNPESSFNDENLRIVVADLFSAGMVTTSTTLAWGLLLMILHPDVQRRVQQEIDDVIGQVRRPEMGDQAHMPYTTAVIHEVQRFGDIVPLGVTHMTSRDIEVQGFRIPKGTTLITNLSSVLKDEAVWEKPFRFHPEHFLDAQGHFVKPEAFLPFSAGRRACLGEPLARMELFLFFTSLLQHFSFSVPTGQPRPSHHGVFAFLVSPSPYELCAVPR

Cytochrome P450 3A4 [26] = target: T2, Cytochrome P450 3A4 (Homo sapiens, UniProt P08684); test: Inhibition of CYP3A4 (unknown origin) using midazolam as substrate; assay type: ADME
T2 sequence (P08684 whole entry): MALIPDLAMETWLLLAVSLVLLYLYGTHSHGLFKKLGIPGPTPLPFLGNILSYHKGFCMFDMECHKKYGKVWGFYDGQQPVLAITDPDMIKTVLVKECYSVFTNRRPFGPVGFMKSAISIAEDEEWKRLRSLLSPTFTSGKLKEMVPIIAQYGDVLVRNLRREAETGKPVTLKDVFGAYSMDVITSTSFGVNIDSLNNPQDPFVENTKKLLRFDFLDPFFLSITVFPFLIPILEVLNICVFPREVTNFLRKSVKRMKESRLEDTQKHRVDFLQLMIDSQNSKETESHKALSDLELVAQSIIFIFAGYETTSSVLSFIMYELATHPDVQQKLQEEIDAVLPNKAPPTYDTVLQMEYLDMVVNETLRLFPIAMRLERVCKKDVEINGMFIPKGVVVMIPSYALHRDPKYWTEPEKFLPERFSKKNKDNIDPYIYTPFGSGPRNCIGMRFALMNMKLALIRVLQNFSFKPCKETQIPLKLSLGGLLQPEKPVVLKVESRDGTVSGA

Cytochrome P450 3A4 [27] = target: T2, Cytochrome P450 3A4; test: Inhibition of CYP3A4 (unknown origin) using testosterone as substrate; assay type: ADME
in vitro [28] = details: human, TZM-bl cells
Description: Therapeutic index, ratio of CC50 for human TZM-bl cells to EC50 for CCR5-dependent HIV1 SF162 infected in human TZM-bl cells

in vitro [29] = details: human, PBMC
Description: Therapeutic index, ratio of CC50 for human PBMC to IC50 for CCR5-dependent HIV1 SF162 infected in human PBMC cells

in vitro [30] = details: human, HOS cells
Description: Therapeutic index, ratio of CC50 for human HOS cells to IC50 for CCR5-dependent HIV1 SF162 infected in human HOS cells

in vitro [31] = details: human, PBMC; remark: listed apart in the source
Description: Therapeutic index, ratio of CC50 for human PBMC to IC50 for CCR5-dependent HIV1 KM018 infected in human PBMC

in vitro [32] = details: human, PBMC; remark: listed apart in the source
Description: Therapeutic index, ratio of CC50 for human PBMC to IC50 for CCR5-dependent HIV1 Ba-L infected in human PBMC

in vitro [33] = details: human, HOS cells; remark: listed apart in the source
Description: Therapeutic index, ratio of CC50 for human HOS cells to IC50 for CCR5-dependent HIV1 Ba-L infected in human HOS cells

in vitro [34] = details: human, PM1 cells
Description: Therapeutic index, ratio of CC50 for human PM1 cells to IC50 for CCR5-dependent HIV1 Ba-L infected in human PM1 cells

[35] = test system: Human immunodeficiency virus 1; test: microbe, parasite or virus in culture; details: Human immunodeficiency virus 1, SF162, TZM-bl, 48 h
Description: Antiviral activity against CCR5-dependent HIV1 SF162 infected in human TZM-bl cells assessed as reduction in virus infection measured after 48 hrs post infection by luciferase reporter gene assay

[36] = test system: Human immunodeficiency virus 1; test: microbe, parasite or virus in culture; details: Human immunodeficiency virus 1, SF162, PBMC, 168 h
Description: Antiviral activity against CCR5-dependent HIV1 SF162 infected in human PBMC assessed as reduction in virus infection measured after 7 days by luciferase reporter gene assay

[37] = test system: Human immunodeficiency virus 1; test: microbe, parasite or virus in culture; details: Human immunodeficiency virus 1, SF162, HOS, 120 h
Description: Antiviral activity against CCR5-dependent HIV1 SF162 infected in human HOS cells assessed as reduction in virus infection measured after 5 days by luciferase reporter gene assay

[38] = test system: Human immunodeficiency virus 1; test: microbe, parasite or virus in culture; details: Human immunodeficiency virus 1, KM018, PBMC, 168 h
Description: Antiviral activity against CCR5-dependent HIV1 KM018 infected in human PBMC assessed as reduction in virus infection measured after 7 days by luciferase reporter gene assay

[39] = test system: Human immunodeficiency virus 1; test: microbe, parasite or virus in culture; details: Human immunodeficiency virus 1, Ba-L, PBMC, 168 h
Description: Antiviral activity against CCR5-dependent HIV1 Ba-L infected in human PBMC assessed as reduction in virus infection measured 7 days by luciferase reporter gene assay

[40] = test system: Human immunodeficiency virus 1; test: microbe, parasite or virus in culture; details: Human immunodeficiency virus 1, Ba-L, HOS, 120 h
Description: Antiviral activity against CCR5-dependent HIV1 Ba-L infected in human HOS cells assessed as reduction in virus infection measured after 5 days by luciferase reporter gene assay

[41] = test system: Human immunodeficiency virus 1; test: microbe, parasite or virus in culture; details: Human immunodeficiency virus 1, Ba-L, PM1, 120 h
Description: Antiviral activity against CCR5-dependent HIV1 Ba-L infected in human PM1 cells assessed as reduction in virus infection measured after 5 days by luciferase reporter gene assay

[42] = Drug level in human liver cells assessed as CYP450-mediated compound formation treated with 4,4-Difluoro-N-(3-((1R,3S,5S)-3-(3-isopropyl-5-methyl-4H-1,2,4-triazol-4-yl)-8-azabicyclo[3.2.1]octan-8-yl)-1-(thiophen-3-yl)-propyl)cyclohexane-1-carboxamide by UPLC/Q-TOF mass spectrometric analysis; assay type: ADME, cell-based; details: recombinant enzyme
[43] = Drug level in dog liver cells assessed as CYP450-mediated compound formation treated with 4,4-Difluoro-N-(3-((1R,3S,5S)-3-(3-isopropyl-5-methyl-4H-1,2,4-triazol-4-yl)-8-azabicyclo[3.2.1]octan-8-yl)-1-(thiophen-3-yl)-propyl)cyclohexane-1-carboxamide by UPLC/Q-TOF mass spectrometric analysis; assay type: ADME, cell-based, Canis lupus familiaris; details: recombinant enzyme
[44] = Drug level in rat liver cells assessed as CYP450-mediated compound formation treated with 4,4-Difluoro-N-(3-((1R,3S,5S)-3-(3-isopropyl-5-methyl-4H-1,2,4-triazol-4-yl)-8-azabicyclo[3.2.1]octan-8-yl)-1-(thiophen-3-yl)-propyl)cyclohexane-1-carboxamide by UPLC/Q-TOF mass spectrometric analysis; assay type: ADME, cell-based; details: recombinant enzyme
[45] = Drug level in mouse liver cells assessed as CYP450-mediated compound formation treated with 4,4-Difluoro-N-(3-((1R,3S,5S)-3-(3-isopropyl-5-methyl-4H-1,2,4-triazol-4-yl)-8-azabicyclo[3.2.1]octan-8-yl)-1-(thiophen-3-yl)-propyl)cyclohexane-1-carboxamide by UPLC/Q-TOF mass spectrometric analysis; assay type: ADME, cell-based; details: recombinant enzyme
[46] = Drug level in rat liver cells assessed as CYP450-mediated compound formation treated with maraviroc by Q-TOF mass spectrometric analysis; assay type: ADME, cell-based; details: recombinant enzyme
[47] = Drug level in dog liver cells assessed as CYP450-mediated compound formation treated with maraviroc by Q-TOF mass spectrometric analysis; assay type: ADME, cell-based, Canis lupus familiaris; details: recombinant enzyme
[48] = Drug level in human liver cells assessed as CYP450-mediated compound formation treated with maraviroc by Q-TOF mass spectrometric analysis; assay type: ADME, cell-based; details: recombinant enzyme

Question: For Cc1nnc(C(C)C)n1[C@@H]1C[C@H]2CC[C@@H](C1)N2CC[C@H](NC(=O)C1CCCC1)c1cccs1, which IC50 [1] is on record?
Answer: 3.1 nM

Question: What about the CC50 at 48 h [2] of the same molecule?
Answer: > 200000 nM

Question: And the Cmax [3]?
Answer: 436 ng/mL

Question: And the Tmax [4]?
Answer: 2 h

Question: And the half-life [5]?
Answer: 1.65 h

Question: What about the AUC(0-inf) [6] of the same molecule?
Answer: 1670 ng·h/mL

Question: What about the MRT [7] of the same molecule?
Answer: 3.02 h

Question: What about the bioavailability [8] of the same molecule?
Answer: 33.4%

Question: And the Cmax [9]?
Answer: 2220 ng/mL

Question: And the Tmax [10]?
Answer: 0.25 h

Question: What about the half-life [11] of the same molecule?
Answer: 1.31 h

Question: And the AUC(0-inf) [12]?
Answer: 2500 ng·h/mL

Question: What about the MRT [13] of the same molecule?
Answer: 0.91 h

Question: And the clearance [14]?
Answer: 66.5 mL/min/kg

Question: What about the Cmax [15] of the same molecule?
Answer: 1160 ng/mL

Question: What about the Tmax [16] of the same molecule?
Answer: 0.8 h

Question: What about the half-life [17] of the same molecule?
Answer: 2.5 h

Question: What about the AUC(0-inf) [18] of the same molecule?
Answer: 2160 ng·h/mL

Question: What about the MRT [19] of the same molecule?
Answer: 2.4 h

Question: What about the bioavailability [20] of the same molecule?
Answer: 38.1%

Question: What about the half-life [21] of the same molecule?
Answer: 0.9 h

Question: What about the AUC(0-inf) [22] of the same molecule?
Answer: 1100 ng·h/mL

Question: And the MRT [23]?
Answer: 0.7 h

Question: What about the clearance [24] of the same molecule?
Answer: 46.7 mL/min/kg

Question: And the IC50 [25]?
Answer: 1520 nM

Question: What about the IC50 (Cytochrome P450 1A2) of the same molecule?
Answer: > 25000 nM

Question: What about the IC50 (Cytochrome P450 2C9) of the same molecule?
Answer: > 25000 nM

Question: What about the IC50 (Cytochrome P450 2C19) of the same molecule?
Answer: > 25000 nM

Question: What about the IC50 (Cytochrome P450 2D6) of the same molecule?
Answer: 16800 nM

Question: What about the IC50 (Cytochrome P450 3A4 [26]) of the same molecule?
Answer: > 25000 nM

Question: And the IC50 (Cytochrome P450 3A4 [27])?
Answer: > 25000 nM

Question: What about the selectivity ratio (in vitro [28]) of the same molecule?
Answer: > 150000

Question: And the selectivity ratio (in vitro [29])?
Answer: 6100

Question: What about the selectivity ratio (in vitro [30]) of the same molecule?
Answer: 25000

Question: And the selectivity ratio (in vitro [31])?
Answer: 4000

Question: What about the selectivity ratio (in vitro [32]) of the same molecule?
Answer: 5900

Question: What about the selectivity ratio (in vitro [33]) of the same molecule?
Answer: 330000

Question: What about the selectivity ratio (in vitro [34]) of the same molecule?
Answer: 220000

Question: What about the IC50 [35] of the same molecule?
Answer: 1.3 nM

Question: What about the IC50 [36] of the same molecule?
Answer: 123 nM

Question: And the IC50 [37]?
Answer: 21 nM

Question: And the IC50 [38]?
Answer: 190 nM

Question: And the IC50 [39]?
Answer: 127 nM

Question: What about the IC50 [40] of the same molecule?
Answer: 1.6 nM

Question: And the IC50 [41]?
Answer: 3.4 nM

Question: For Cc1nnc(C(C)C)n1[C@@H]1C[C@H]2CC[C@@H](C1)N2CC[C@H](NC(=O)C1CCC(F)CC1)c1ccsc1 (some centres not stated), which Drug uptake [42] is on record?
Answer: Active

Question: And the Drug uptake [43]?
Answer: Active

Question: And the Drug uptake [44]?
Answer: Active

Question: And the Drug uptake [45]?
Answer: Active

Question: What about the Drug uptake [46] of the same molecule?
Answer: Active

Question: And the Drug uptake [47]?
Answer: Active

Question: And the Drug uptake [48]?
Answer: Active
